Results on eleven molecules are retold here after US11944605B2, “Rapamycin analogs and uses thereof” (Janssen Pharmaceutica NV, priority 2018, dated 2024).

In assay [1] the test system is pS6K1 (p-p70 S6 Kinase (Thr389)) in MCF-7 cells. Briefly: AlphaLISA Ultra pS6K1 Assay. In kind it is cell-based. Conditions: Homo sapiens, 1.5 h; MCF7 cells, 90 min. The procedure: AlphaLISA Ultra pS6K1 Assay
1. Seed MCF-7 cells in Corning 3701 plate and incubate for 20˜24 hour. 12,000˜16,000 cells will be seeded in 36 μL medium per well.
2. Change the culture medium with fresh medium and incubate for another 2 hours.
3. Add 12 μL (4×) compounds into the cell plate by HAMILTON. Final DMSO concentration is 0.5%. Incubate for 90 minutes.
4. Aspirate […] by HAMILTON, 10 μL rest per well.
5. Add 10 μL 2× lysis buffer using HAMILTON; total volume in wells is 20 μL. Allow cells to shake for 30 min. Cover plate by plastic foil and store plate at −80° C. up to analysis.
6. Thaw cell lysate at RT and transfer 10 μL lysate to assay plate (Optiplate-384).
7. Add 5 μL acceptor beads into assay plate and incubation for 2 hours
8. Add 5 μL donor beads and incubation for 2 hours
9. Count the plate by EnSpire Multimode Plate Reader

For assay [2], the system named is mTORC1 over mTORC2. Put plainly: mTORC1 selectivity over mTORC2 at 24 hrs (Western blot based pS6K1 and pAKT assay). In kind it is cell-based. Conditions: 24 hrs. The procedure:
Western Blot Based pS6K1 and pAKT Assay at 24 and 48 Hour Timepoints
1. Seed six well plate with 500,000 PC3 cells per well and incubate for 20˜24 hour.
2. Add compounds into the cell plate. Incubate for 24 to 48 hours.
4. Plate is placed on ice and the media is removed via aspiration. The wells are washed with 1 mL of 1× PBS and then fully aspirated.
5. 110 μL of 1% Triton Lysis Buffer is added and each well is scraped vigorously.
6. Cell homogenates are transferred to 1.5 mL eppendorf tubes on ice and spun down at 4° C. for 10 minutes at 10,000 rpm.
9. The membranes were washed 3× with TBS-T with a 5 minute incubation between each wash then incubated with secondary antibody (LiCor IRDye 800 Donkey Anti Rabbit) for at least 30 minutes.
10. The membranes were washed 3× with TBS-T with a 5 minute incubation between each wash.
11. The gels were then incubated for 5 minutes with PBS at room temperature then imaged using a Li-Cor.
“N/A” stands for “not assayed.”
(In western blotting, separated proteins are transferred to a membrane and probed.)

The term IC50 denotes the concentration at which inhibition is half-maximal. Lower therefore signals inhibition by little substance. The molecule `CCCCCCOC1C[C@@H]2CC[C@@H](C)[C@@](O)(O2)C(=O)C(=O)N2CCCC[C@H]2C(=O)O[C@H]([C@H](C)C[C@@H]2CC[C@@H](O)[C@H](OC)C2)CC(=O)[C@H](C)/C=C(\C)[C@@H](O)[C@@H](OC)C(=O)[C@H](C)C[C@H](C)/C=C/C=C/C=C/1C` (some centres unmarked) [Compound I-103] showed an IC50 in assay [1] of 0.1 to 1 nM. In assay [1], `CO[C@@H]1C[C@H](C[C@@H](C)[C@@H]2CC(=O)[C@H](C)/C=C(\C)[C@@H](O)[C@@H](OC)C(=O)[C@H](C)C[C@H](C)/C=C/C=C/C=C(\C)[C@H](OCC(CO)CO)C[C@@H]3CC[C@@H](C)[C@@](O)(O3)C(=O)C(=O)N3CCCC[C@H]3C(=O)O2)CC[C@H]1O` [I-4] showed an IC50 of 0.1 to 1 nM. The “mTORC1 selective @ 24 hrs” value in assay [2] was “YES”. As to `CNC(=O)CCCO[C@@H]1C[C@@H]2CC[C@@H](C)[C@@](O)(O2)C(=O)C(=O)N2CCCC[C@H]2C(=O)O[C@H]([C@H](C)C[C@@H]2CC[C@@H](OCCO)[C@H](OC)C2)CC(=O)[C@H](C)/C=C(\C)[C@@H](O)[C@@H](OC)C(=O)[C@H](C)C[C@H](C)/C=C/C=C/C=C/1C` [I-59, 4-[[(22E,24E,26E,27E,34R,35S,36R,37R,39S,41S,43R,44S,45R,46R,56R)-45, 56-dihydroxy-44-[(1R)-2-[(1S,3R,4R)-4-(2-hydroxyethoxy)-3-methoxy-cyclohexyl]-1-methyl-ethyl]-46-methoxy-34, 35,36,37,47,48-hexamethyl-49,50,51,52,53-pentaoxo-68,69-dioxa-58-azatricyclohexatriaconta-22, 24,26(47),27(48)-tetraen-43-yl]oxy]-N-methyl-butanamide], the concentration for half-maximal inhibition (IC50) in assay [1] is at least 100 nM. Moreover, the “mTORC1 selective @ 24 hrs” value in assay [2] is “YES”. On to `CNC(=O)CCCO[C@H]1C[C@@H]2CC[C@@H](C)[C@@](O)(O2)C(=O)C(=O)N2CCCC[C@H]2C(=O)O[C@H]([C@H](C)C[C@@H]2CC[C@@H](OCCO)[C@H](OC)C2)CC(=O)[C@H](C)/C=C(\C)[C@@H](O)[C@@H](OC)C(=O)[C@H](C)C[C@H](C)/C=C/C=C/C=C/1C` [I-60, 4-[[(22E, 24E,26E,27E,34R,35S,36R,37R,39S,41S,43S,44S,45R,46R,56R)-45, 56-dihydroxy-44-[(1R)-2-[(1S,3R,4R)-4-(2-hydroxyethoxy)-3-methoxy-cyclohexyl]-1-methyl-ethyl]-46-methoxy-34, 35,36,37,47,48-hexamethyl-49,50,51,52,53-pentaoxo-68,69-dioxa-58-azatricyclohexatriaconta-22, 24,26(47),27(48)-tetraen-43-yl]oxy]-N-methyl-butanamide], for which the half-inhibitory concentration (IC50) in assay [1] fell in the range of 1 to 10 nM. In assay [2], the “mTORC1 selective @ 24 hrs” value was “YES”. Turning to `CO[C@@H]1C[C@H](C[C@@H](C)[C@@H]2CC(=O)[C@H](C)/C=C(\C)[C@@H](O)[C@@H](OC)C(=O)[C@H](C)C[C@H](C)/C=C/C=C/C=C(\C)[C@H](OCCCC(=O)N(C)C)C[C@@H]3CC[C@@H](C)[C@@](O)(O3)C(=O)C(=O)N3CCCC[C@H]3C(=O)O2)CC[C@H]1OCCO` [I-61, 4-[[(23E,25E,27E,28E,35R,36S,37R,38R,40S,42S,44R,45S,46R,47R,57R)-46, 57-dihydroxy-45-[(1R)-2-[(1S,3R,4R)-4-(2-hydroxyethoxy)-3-methoxy-cyclohexyl]-1-methyl-ethyl]-47-methoxy-35, 36,37,38,48,49-hexamethyl-50,51,52,53,54-pentaoxo-69,70-dioxa-58-azatricyclohexatriaconta-23, 25,27(48),28(49)-tetraen-44-yl]oxy]-N,N-dimethyl-butanamide], the IC50 in assay [1] fell in the range of 1 to 10 nM. The “mTORC1 selective @ 24 hrs” value in assay [2] is recorded as “YES”.

`CNC(=O)CCCOC1C[C@@H]2CC[C@@H](C)[C@@](O)(O2)C(=O)C(=O)N2CCCC[C@H]2C(=O)OC([C@H](C)CC2CC[C@@H](OCCO)[C@H](OC)C2)CC(=O)[C@H](C)/C=C(\C)[C@@H](O)[C@@H](OC)C(=O)[C@H](C)C[C@H](C)/C=C/C=C/C=C/1C` (stereo partly drawn) [I-68, 4-[[(22E,24E,26E,27E,34R,35S,36R,37R,39S,41S,44S,45R,46R, 56R)-45,56-dihydroxy-44-[(1R)-2-[(1S,3R,4R)-4-(2-hydroxyethoxy)-3-methoxy-cyclohexyl]-1-methyl-ethyl]-46-methoxy-34, 35,36,37,47,48-hexamethyl-49,50,51,52,53-pentaoxo-68,69-dioxa-58-azatricyclohexatriaconta-22, 24,26(47),27(48)-tetraen-43-yl]oxy]-N-methyl-butanamide]: the 50% inhibitory concentration (IC50) in assay [1] fell in the range of 1 to 10 nM. Further, the “mTORC1 selective @ 24 hrs” value in assay [2] is reported as “YES”.

As for `CO[C@@H]1CC(C[C@@H](C)C2CC(=O)[C@H](C)/C=C(\C)[C@@H](O)[C@@H](OC)C(=O)[C@H](C)C[C@H](C)/C=C/C=C/C=C(\C)C(OCCCC(=O)N(C)C)C[C@@H]3CC[C@@H](C)[C@@](O)(O3)C(=O)C(=O)N3CCCC[C@H]3C(=O)O2)CC[C@H]1OCCO` (stereo partly drawn) [I-69, 4-[[(23E, 25E,27E,28E,35R,36S,37R,38R,40S,42S,45S,46R,47R,57R)-46,57-dihydroxy-45-[(1R)-2-[(1S, 3R,4R)-4-(2-hydroxyethoxy)-3-methoxy-cyclohexyl]-1-methyl-ethyl]-47-methoxy-35, 36,37,38,48,49-hexamethyl-50,51,52,53,54-pentaoxo-69,70-dioxa-58-azatricyclohexatriaconta-23, 25,27(48),28(49)-tetraen-44-yl]oxy]-N,N-dimethyl-butanamide], in assay [1], the 50% inhibitory concentration (IC50) was 0.1 to 1 nM. Also, the “mTORC1 selective @ 24 hrs” value in assay [2] is listed as “YES”. The molecule `CO[C@@H]1CC(C[C@@H](C)C2CC(=O)[C@H](C)/C=C(\C)[C@@H](O)[C@@H](OC)C(=O)[C@H](C)C[C@H](C)/C=C/C=C/C=C(\C)[C@H](OCCOCC(F)(F)F)C[C@@H]3CC[C@@H](C)[C@@](O)(O3)C(=O)C(=O)N3CCCC[C@H]3C(=O)O2)CC[C@H]1OCCO` (stereo partly drawn) [I-70, (21E,23E,25E,26E,33R,34S,35R,36R,38S,40S,42S,43R,44R,45R,54R)-44, 54-dihydroxy-43-[(1R)-2-[(1S,3R,4R)-4-(2-hydroxyethoxy)-3-methoxy-cyclohexyl]-1-methyl-ethyl]-45-methoxy-33, 34,35,36,46,47-hexamethyl-42-[2-(2,2,2-trifluoroethoxy)ethoxy]-65, 66-dioxa-56-azatricyclohexatriaconta-21,23,25(46),26(47)-tetraene-48,49,50,51,52-pentone] registered a half-inhibitory concentration (IC50) in assay [1] of 1 to 10 nM. For the same molecule, the “mTORC1 selective @ 24 hrs” value in assay [2] is recorded as “YES”. In turn, `CO[C@@H]1CC(C[C@@H](C)C2CC(=O)[C@H](C)/C=C(\C)[C@@H](O)[C@@H](OC)C(=O)[C@H](C)C[C@H](C)/C=C/C=C/C=C(\C)C(OCCOCC(F)(F)F)C[C@@H]3CC[C@@H](C)[C@@](O)(O3)C(=O)C(=O)N3CCCC[C@H]3C(=O)O2)CC[C@H]1OCCO` (stereo partly drawn) [I-77, (21E,23E,25E,26E,33R,34S,35R,36R,38S,40S,43S,44R,45R,54R)-44, 54-dihydroxy-43-[(1R)-2-[(1S,3R,4R)-4-(2-hydroxyethoxy)-3-methoxy-cyclohexyl]-1-methyl-ethyl]-45-methoxy-33, 34,35,36,46,47-hexamethyl-42-[2-(2,2,2-trifluoroethoxy)ethoxy]-65,66-dioxa-56-azatricyclohexatriaconta-21, 23,25(46),26(47)-tetraene-48,49,50,51,52-pentone] showed a concentration for half-maximal inhibition (IC50) in assay [1] below 0.1 nM. For the same molecule, the “mTORC1 selective @ 24 hrs” value in assay [2] is “YES”. `CO[C@@H]1C[C@H](C[C@@H](C)[C@@H]2CC(=O)[C@H](C)/C=C(\C)[C@@H](O)[C@@H](OC)C(=O)[C@H](C)C[C@H](C)/C=C/C=C/C=C(\C)[C@H](OCCOCCOCC(F)(F)F)C[C@@H]3CC[C@@H](C)[C@@](O)(O3)C(=O)C(=O)N3CCCC[C@H]3C(=O)O2)CC[C@H]1OCCO` [I-84]: the IC50 in assay [1] lay in the range of 0.1 to 1 nM. Further, in assay [2], the “mTORC1 selective @ 24 hrs” value was “YES”.

As for `CO[C@@H]1C[C@H](C[C@@H](C)[C@@H]2CC(=O)[C@H](C)/C=C(\C)[C@@H](O)[C@@H](OC)C(=O)[C@H](C)C[C@H](C)/C=C/C=C/C=C(\C)[C@@H](OCCS(=O)(=O)CCS(=O)(=O)CCO)C[C@@H]3CC[C@@H](C)[C@@](O)(O3)C(=O)C(=O)N3CCCC[C@H]3C(=O)O2)CC[C@H]1O` [I-95, (21E,23E,25E,26E,34R,35S,36R,37R,39S,41S,43S,44S,45R,46R,55R)-45, 55-dihydroxy-43-[2-[2-(2-hydroxyethylsulfonyl)ethylsulfonyl]ethoxy]-44-[(1R)-2-[(1S,3R, 4R)-4-hydroxy-3-methoxy-cyclohexyl]-1-methyl-ethyl]-46-methoxy-34,35,36,37,47,48-hexamethyl-70, 71-dioxa-56-azatricyclohexatriaconta-21,23,25(47),26(48)-tetraene-49, 50,51,52,53-pentone], the “mTORC1 selective @ 24 hrs” value in assay [2] is “YES”.
